In series [1] the test system is Saccharomyces cerevisiae. The experiment in a line: Inhibition of Saccharomyces cerevisiae alpha-glucosidase assessed as decrease in release of p-nitrophenol at 100 uM using pNPG as substrate preincubated for 15 min followed by substrate addition and measured after 5 mins by spectrophotometric method relative to control. The conditions noted are these: time 20.0 min.

The nature of series [2]: Inhibition of Saccharomyces cerevisiae alpha-glucosidase assessed as decrease in release of p-nitrophenol using pNPG as substrate preincubated for 15 min followed by substrate addition and measured after 5 mins by spectrophotometric method.
The species entered for series [3] is Rattus norvegicus. The experiment in a line: Hypoglycemic activity in sucrose-treated Sprague-Dawley rat assessed as reduction in blood glucose AUC measured after 2 hrs by oral sucrose tolerance test. The class given is functional, organism-based.
The species named for series [4] is Homo sapiens. The experiment in a line: Binding affinity to alpha-glucosidase (unknown origin) assessed as quenching of intrinsic tryptophan fluorescence of the enzyme by FRET assay.
Series [5] is described as follows: Cytotoxicity against human L02 cells assessed as cell viability at 100 uM by MTT assay relative to control. It is filed as cell-based. The conditions noted are these: read-out: Activity.
The species entered for series [6] is Homo sapiens. The experiment in a line: Non-competitive inhibition of alpha-glucosidase (unknown origin) assessed as decrease in Vmax with constant Km using varying levels of PNP glycoside as substrate preincubated for 30 mins followed by substrate addition and measured for 60 seconds by Lineweaver-Burk plot analysis.
Series [7] can be described thus: Cytotoxicity against human HepG2 cells assessed as cell viability at 100 uM by MTT assay relative to control. The conditions noted are these: read-out: Activity. The class given is cell-based. For orientation: Formazan colour is commonly taken as a measure of viable cells.
The species named for series [8] is Rattus norvegicus. The experiment in a line: Hypoglycemic activity in sucrose-treated Sprague-Dawley rat assessed as reduction in blood glucose level measured after 30 mins by oral sucrose tolerance test. The class given is functional, organism-based.

Active and inactive are the calls of the source. No cut-off for these calls is given here.

What is called inhibition is the relative decrease from the control value, in per cent. `N#Cc1c(NC(=O)N/N=C/c2ccccc2OCc2ccccc2)sc2c1CCCC2`: in series [1], the inhibition was 48%. Broadly, the IC50 is the concentration at which inhibition is half-maximal. For the compound `N#Cc1c(NC(=O)N/N=C/c2ccc(OCc3ccccc3)cc2)sc2c1CCCC2`, the IC50 in series [2] was 26.5 µM. Besides, in series [1], the inhibition was 66.6%. The corresponding values for `N#Cc1c(NC(=O)N/N=C/c2ccc(N3CCCC3)cc2)sc2c1CCCC2` are 68.4 µM and 70.7%.

Take `N#Cc1c(NC(=O)N/N=C/c2cccc(O)c2)sc2c1CCCC2`: the inhibition in series [1] was determined as 48.4%. As to `CC(C)c1ccc(/C=N/NC(=O)Nc2sc3c(c2C#N)CCCC3)cc1`, the IC50 in series [2] amounted to 48.6 µM. Besides, the inhibition in series [1] came to 64.2%. On to `Cc1ccc(/C=N/NC(=O)Nc2sc3c(c2C#N)CCCC3)c(O)c1`, for which the inhibition in series [1] was found to be 34.9%. Same read-out and setting: the value for `Cc1cccc(/C=N/NC(=O)Nc2sc3c(c2C#N)CCCC3)c1O` was 29.5%.

In the case of `N#Cc1c(NC(=O)N/N=C/c2ccc(Oc3ccccc3)cc2)sc2c1CCCC2`, in series [2], the half-maximal inhibitory concentration (IC50) was determined as 21.8 µM. Also, the inhibition in series [1] was determined as 72.5%. Regarding `CN(C)c1ccc(/C=N/NC(=O)Nc2sc3c(c2C#N)CCCC3)cc1`, in series [2], the IC50 worked out at 46.4 µM. Further, the inhibition in series [1] was 67.2%. `CCc1ccc(/C=N/NC(=O)Nc2sc3c(c2C#N)CCCC3)cc1`: in series [2], the IC50 came out at 25.4 µM. Moreover, the inhibition in series [1] came out at 89.5%. The corresponding values for `Cc1cc(/C=N/NC(=O)Nc2sc3c(c2C#N)CCCC3)ccc1O` are 54.4 µM and 72.2%.

`CCN(CC)c1ccc(/C=N/NC(=O)Nc2sc3c(c2C#N)CCCC3)c(O)c1`: in series [2], the IC50 is 32.5 µM. The inhibition in series [1] amounted to 64.2%.

Turning to `COc1ccc(/C=N/NC(=O)Nc2sc3c(c2C#N)CCCC3)cc1O`, in series [1], the inhibition was found to be 27.8%. Consider `N#Cc1c(NC(=O)N/N=C/c2ccc(O)cc2)sc2c1CCCC2`, for which the IC50 in series [2] was 20.7 µM. Further, the inhibition in series [1] amounted to 81.7%. Turning to `N#Cc1c(NC(=O)N/N=C/c2ccc(O)c(O)c2)sc2c1CCCC2`, in series [2], the IC50 stood at 9.26 µM. Further, the outcome in series [3] and in series [8] was Active. For the same compound, in series [4], the Activity entry was “Dose-Dependent Effect”. For the same compound, the results for the viability at 100 µM in series [5] and in series [7] were 96% and 92.7%, respectively. The inhibition result in series [6] was “Active”. Besides, the inhibition in series [1] was determined as 86.3%. For `C[C@H]1O[C@H](O[C@H]2[C@H](O)[C@@H](O)[C@@H](O[C@H]3[C@H](O)[C@@H](O)C(O)O[C@@H]3CO)O[C@@H]2CO)[C@H](O)[C@@H](O)[C@@H]1N[C@H]1C=C(CO)[C@@H](O)[C@H](O)[C@H]1O` (stereo partly drawn) [ACARBOSE], the IC50 in series [2] was 440 µM. In series [8], the result was Active. Turning to `Cc1ccc(/C=N/NC(=O)Nc2sc3c(c2C#N)CCCC3)cc1C`, the IC50 in series [2] worked out at 38.9 µM. The inhibition in series [1] came to 74.8%. As for `COc1cc(/C=N/NC(=O)Nc2sc3c(c2C#N)CCCC3)cc(OC)c1O`, in series [1], the inhibition was found to be 0.7%. As to `COC(=O)c1ccc(/C=N/NC(=O)Nc2sc3c(c2C#N)CCCC3)cc1`, the inhibition in series [1] was 7.69%. In the case of `Cc1ccc(/C=N/NC(=O)Nc2sc3c(c2C#N)CCCC3)cc1`, in series [2], the IC50 came to 29.8 µM. In series [1], the inhibition is 85.1%. Take `N#Cc1c(NC(=O)N/N=C/c2ccccc2O)sc2c1CCCC2`: the inhibition in series [1] came to 44.9%.

For the compound `COc1cccc2c1C(=O)c1c(O)c3c(c(O)c1C2=O)C[C@@](O)(C(=O)CO)C[C@@H]3O[C@H]1C[C@H](N)[C@H](O)[C@H](C)O1` [DOXORUBICIN], the viability at 100 µM in series [5] and in series [7] was 4% throughout. As for `N#Cc1c(NC(=O)N/N=C/c2ccccc2)sc2c1CCCC2`, the inhibition in series [1] was determined as 31.4%. Turning to `N#Cc1c(NC(=O)N/N=C/c2ccc(O)c(O)c2O)sc2c1CCCC2`, in series [2], the IC50 was 17.7 µM. Further, in series [1], the inhibition was determined as 85.9%. Take `N#Cc1c(NC(=O)N/N=C/c2ccc(O)cc2O)sc2c1CCCC2`: the IC50 in series [2] is 33.8 µM. For the same compound, the inhibition in series [1] was 63.1%.

Consider `Cc1cc(C)c(/C=N/NC(=O)Nc2sc3c(c2C#N)CCCC3)c(C)c1`, for which, in series [2], the IC50 amounted to 49.6 µM. In addition, the inhibition in series [1] was found to be 52.3%. `COc1ccc(/C=N/NC(=O)Nc2sc3c(c2C#N)CCCC3)cc1`: the inhibition in series [1] worked out at 18.8%. In the case of `N#Cc1c(NC(=O)N/N=C/c2cc(O)cc(O)c2)sc2c1CCCC2`, the IC50 in series [2] was 11.4 µM. In addition, the outcome in series [3] and in series [8] was Active. Besides, the Activity entry in series [4] was “Dose-Dependent Effect”. The values for the viability at 100 µM in series [5] and in series [7] were 96.6% and 93.8%, respectively. For the same compound, in series [6], the inhibition entry is “Active”. In addition, the inhibition in series [1] worked out at 89.5%. Turning to `N#Cc1c(NC(=O)N/N=C/c2ccc3c(c2)OC=CO3)sc2c1CCCC2`, the inhibition in series [1] worked out at 35.7%. Regarding `CCN(CC)c1ccc(/C=N/NC(=O)Nc2sc3c(c2C#N)CCCC3)cc1`, the IC50 in series [2] stood at 32.1 µM. Also, the inhibition in series [1] came out at 77.3%.

`Cc1cccc(/C=N/NC(=O)Nc2sc3c(c2C#N)CCCC3)c1C`: in series [2], the IC50 worked out at 49.2 µM. Also, the inhibition in series [1] is 59.5%.

`N#Cc1c(NC(=O)N/N=C/c2ccc(N(c3ccccc3)c3ccccc3)cc2)sc2c1CCCC2`: the IC50 in series [2] worked out at 13.5 µM. Moreover, the inhibition in series [1] came out at 89.7%. For `N#Cc1c(NC(=O)N/N=C/c2cccc(OCc3ccccc3)c2)sc2c1CCCC2`, the inhibition in series [1] is 40.5%.

For the compound `COc1cc(/C=N/NC(=O)Nc2sc3c(c2C#N)CCCC3)cc(OC)c1`, the inhibition in series [1] came to 36.4%. With `N#Cc1c(NC(=O)NCc2ccccc2)sc2c1CCCC2`, the IC50 in series [2] worked out at 63.1 µM. `N#Cc1c(NC(=O)N/N=C/c2cccc(O)c2O)sc2c1CCCC2`: the IC50 in series [2] is 29.5 µM. Further, the inhibition in series [1] is 68.2%. Turning to `Cc1cc(/C=N/NC(=O)Nc2sc3c(c2C#N)CCCC3)cc(C)c1O`, in series [1], the inhibition was 35.4%.

In the case of `N#Cc1c(NC(=O)N/N=C/c2ccc([N+](=O)[O-])cc2)sc2c1CCCC2`, in series [2], the IC50 came out at 67.4 µM. In series [1], the inhibition amounted to 57.6%.

The record behind these values is ChEMBL document CHEMBL5030554, “Design, synthesis and biological evaluation of novel (E)-2-benzylidene-N-(3-cyano-4,5,6,7-tetrahydrobenzo[b]thiophen-2-yl)hydrazine-1-carboxamide derivatives as α-glucosidase inhibitors” (Bioorg Med Chem Lett, 2021).
